Patent US20230077362A1 (CORTEVA AGRISCIENCE LLC, priority 2019, published 2023)
Read-outs that look alike come from different tables or passages of the source.

Tests used:
[1] = tested on: Cabbage Looper (Trichoplusia ni) ("CL"), second instar larvae; assay: Bioassay on cabbage looper (CL), 128-well diet tray assay; assay type: in vivo; details: for pest or weed control at 50 µg/cm2: Trichoplusia ni; for CL rating: Table ABC, species CL, C = not tested, D = no activity noticed
In short: (§1)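 Sealed trays, 25° C., 14:10 light:dark, 5–7 d. Per-well % mortality recorded, mean of eight wells reported.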

[2] = tested on: Beet Armyworm (Spodoptera exigua) ("BAW"), second instar larvae; assay: Bioassay on beet armyworm (BAW), 128-well diet tray assay; assay type: in vivo; details: for pest or weed control at 50 µg/cm2: Spodoptera exigua; for BAW rating: Table ABC, species BAW, C = not tested, D = no activity noticed
In short: as §1

[3] = read-out: CL (Biological Results, rating)
[4] = read-out: BAW (Biological Results, rating)

Molecule	pest or weed control at 50 µg/cm2 [1, 3]	pest or weed control at 50 µg/cm2 [2, 4]	pest or weed control at 50 µg/cm2 ([1]; read-out: CL rating)	pest or weed control at 50 µg/cm2 ([2]; read-out: BAW rating)	other results
COC(C)c1ccc(C)cc1N1C(=O)CS/C1=N\C(=O)Nc1ccc(-c2ncn(-c3ccc(C(F)(F)F)cn3)n2)cc1Cl (centres unmarked) [Compound J306, (Z)-1-(2-Chloro-4-(1-(5-(trifluoromethyl)pyridin-2-yl)-1H-1,2,4-triazol-3-yl)phenyl)-3-(3-(2-(1-methoxyethyl)-5-methylphenyl)-4-oxothiazolidin-2-ylidene)urea]	50 to 100%	50 to 100%	–	–	–
Cc1ccc(OCC(F)(F)F)c(N2C(=O)CS/C2=N\C(=O)Nc2ccc(-c3ncn(-c4ccc(OC(F)(F)F)cc4)n3)cc2F)c1 [Compound J31, (Z)-1-(2-Fluoro-4-(1-(4-(trifluoromethoxy)phenyl)-1H-1,2,4-triazol-3-yl)phenyl)-3-(3-(5-methyl-2-(2,2,2-trifluoroethoxy)phenyl)-4-oxothiazolidin-2-ylidene)urea]	50 to 100%	50 to 100%	–	–	–
(Z)-1-(2-Fluoro-4-(1-(4-(trifluoromethoxy)phenyl)-1H-1,2,4-triazol-3-yl)phenyl)-3-(3-(5-methyl-2-((thiophen-3-ylmethoxy)methyl)phenyl)-4-oxothiazolidin-2-ylidene)urea [Compound J623]	–	–	–	–	CL rating [1]: A (50-100); BAW rating [2]: A (50-100)
CC(C)c1cc(F)c(N(C)C)cc1N1C(=O)CS/C1=N\C(=O)Nc1ccc(-c2cn(-c3ccc(S(F)(F)(F)(F)F)cc3)cn2)cc1F [Compound J604, (Z)-1-(3-(5-(Dimethylamino)-4-fluoro-2-isopropylphenyl)-4-oxothiazolidin-2-ylidene)-3-(2-fluoro-4-(1-(4-(pentafluoro-λ^6-sulfaneyl)phenyl)-1H-imidazol-4-yl)phenyl)urea]	–	–	50 to 100%	50 to 100%	–
Cc1ccc(OCCC(F)(F)F)c(N2C(=O)CS/C2=N\C(=O)Nc2ccc(-c3ncn(-c4ccc(C(F)(F)F)cn4)n3)cc2C(F)(F)F)c1 [Compound J305, (Z)-1-(3-(5-Methyl-2-(3,3,3-trifluoropropoxy)phenyl)-4-oxothiazolidin-2-ylidene)-3-(2-(trifluoromethyl)-4-(1-(5-(trifluoromethyl)pyridin-2-yl)-1H-1,2,4-triazol-3-yl)phenyl)urea]	50 to 100%	50 to 100%	–	–	–
CCCNc1ccc(C(C)C)c(N2C(=O)CS/C2=N\C(=O)Nc2ccc(-c3ncn(-c4ccc(OC(F)(F)F)cc4)n3)cc2C)c1 [Compound J128, (Z)-1-(3-(2-Isopropyl-5-(propylamino)phenyl)-4-oxothiazolidin-2-ylidene)-3-(2-methyl-4-(1-(4-(trifluoromethoxy)phenyl)-1H-1,2,4-triazol-3-yl)phenyl)urea]	50 to 100%	50 to 100%	–	–	–
COc1cc(-c2ncn(-c3ccc(C(F)(F)F)cc3)n2)ccc1NC(=O)/N=C1\SCC(=O)N1c1cc(C)ccc1C(C)C [Compound J13, (Z)-1-(3-(2-Isopropyl-5-methylphenyl)-4-oxothiazolidin-2-ylidene)-3-(2-methoxy-4-(1-(4-(trifluoromethyl)phenyl)-1H-1,2,4-triazol-3-yl)phenyl)urea]	50 to 100%	50 to 100%	–	–	–
CC(C)c1ccc(N(C)C)cc1N1C(=O)CS/C1=N\C(=O)Nc1ccc(-c2ncn(-c3ccc(OCC#N)cc3)n2)cc1F [Compound J342, (Z)-1-(4-(1-(4-(Cyanomethoxy)phenyl)-1H-1,2,4-triazol-3-yl)-2-fluorophenyl)-3-(3-(5-(dimethylamino)-2-isopropylphenyl)-4-oxothiazolidin-2-ylidene)urea]	50 to 100%	50 to 100%	–	–	–
CCNc1ccc(C(C)C)c(N2C(=O)CS/C2=N\C(=O)Nc2ccc(-c3ncn(-c4ccc(OC(F)(F)F)cc4)n3)cc2F)c1 [Compound J106, (Z)-1-(3-(5-(Ethylamino)-2-isopropylphenyl)-4-oxothiazolidin-2-ylidene)-3-(2-fluoro-4-(1-(4-(trifluoromethoxy)phenyl)-1H-1,2,4-triazol-3-yl)phenyl)urea]	50 to 100%	50 to 100%	–	–	–
Cc1ccc(COCC(F)(F)F)c(N2C(=O)CS/C2=N\C(=O)Nc2ccc(-c3cn(-c4ccc(S(F)(F)(F)(F)F)cc4)cn3)cc2F)c1 [Compound J598, (Z)-1-(2-Fluoro-4-(1-(4-(pentafluoro-λ^6-sulfaneyl)phenyl)-1H-imidazol-4-yl)phenyl)-3-(3-(5-methyl-2-((2,2,2-trifluoroethoxy)methyl)phenyl)-4-oxothiazolidin-2-ylidene)urea]	–	–	50 to 100%	50 to 100%	–
Cc1ccc(COCC(F)F)c(N2C(=O)CS/C2=N\C(=O)Nc2ccc(-c3ncn(-c4ccc(S(F)(F)(F)(F)F)cc4)n3)cc2F)c1 [Compound J446]	–	–	50 to 100%	50 to 100%	–
Cc1ccc(C(C)C)c(N2C(=O)CS/C2=N\C(=O)Nc2ccc(-c3ncn(-c4ccc(C(F)(F)F)cc4)n3)c(C)c2)c1 [Compound J4, (Z)-1-(3-(2-Isopropyl-5-methylphenyl)-4-oxothiazolidin-2-ylidene)-3-(3-methyl-4-(1-(4-(trifluoromethyl)phenyl)-1H-1,2,4-triazol-3-yl)phenyl)urea]	50 to 100%	50 to 100%	–	–	–
Cc1ccc(COCC(F)(F)F)c(N2C(=O)CS/C2=N\C(=O)Nc2ccc(-c3ncn(-c4ccc(OCC(F)(F)F)cc4)n3)cc2F)c1 [Compound J764, (Z)-1-(2-Fluoro-4-(1-(4-(2,2,2-trifluoroethoxy)phenyl)-1H-1,2,4-triazol-3-yl)phenyl)-3-(3-(5-methyl-2-((2,2,2-trifluoroethoxy)methyl)phenyl)-4-oxothiazolidin-2-ylidene)urea]	–	–	50 to 100%	50 to 100%	–
Cc1ccc(COCC(F)(F)F)c(N2C(=O)CS/C2=N\C(=O)Nc2ccc(-c3ncn(-c4ccc(SC(F)(F)F)cc4)n3)cc2C)c1 [Compound J204, (Z)-1-(3-(5-Methyl-2-((2,2,2-trifluoroethoxy)methyl)phenyl)-4-oxothiazolidin-2-ylidene)-3-(2-methyl-4-(1-(4-((trifluoromethyl)thio)phenyl)-1H-1,2,4-triazol-3-yl)phenyl)urea]	50 to 100%	50 to 100%	–	–	–
Cc1ccc(OCCC(F)(F)F)c(N2C(=O)CS/C2=N\C(=O)Nc2ccc(-c3cn(-c4ccc(C(F)(F)F)cn4)cn3)cc2F)c1 [Compound J484, (Z)-1-(2-Fluoro-4-(1-(5-(trifluoromethyl)pyridin-2-yl)-1H-imidazol-4-yl)phenyl)-3-(3-(5-methyl-2-(3,3,3-trifluoropropoxy)phenyl)-4-oxothiazolidin-2-ylidene)urea]	–	–	50 to 100%	50 to 100%	–
CCOCc1ccc(C)cc1N1C(=O)CS/C1=N\C(=O)Nc1ccc(-c2cn(-c3ccc(S(F)(F)(F)(F)F)cc3)cn2)cc1C [Compound J615, (Z)-1-(3-(2-(Ethoxymethyl)-5-methylphenyl)-4-oxothiazolidin-2-ylidene)-3-(2-methyl-4-(1-(4-(pentafluoro-λ^6-sulfaneyl)phenyl)-1H-imidazol-4-yl)phenyl)urea]	–	–	50 to 100%	50 to 100%	–
COC(C)c1ccc(C)cc1N1C(=O)CS/C1=N\C(=O)Nc1ccc(-n2cnc(-c3ccc(OC(F)(F)F)cc3)n2)cc1F (centres unmarked) [Compound J685, (Z)-1-(2-Fluoro-4-(3-(4-(trifluoromethoxy)phenyl)-1H-1,2,4-triazol-1-yl)phenyl)-3-(3-(2-(1-methoxyethyl)-5-methylphenyl)-4-oxothiazolidin-2-ylidene)urea]	–	–	50 to 100%	50 to 100%	–
Cc1ccc(C(C)C)c(N2C(=O)CS/C2=N\C(=O)Nc2ccc(-n3cnc(-c4ccc(OC(F)(F)F)cc4)n3)cc2C)c1 [Compound J466, (Z)-1-(3-(2-Isopropyl-5-methylphenyl)-4-oxothiazolidin-2-ylidene)-3-(2-methyl-4-(3-(4-(trifluoromethoxy)phenyl)-1H-1,2,4-triazol-1-yl)phenyl)urea]	–	–	50 to 100%	50 to 100%	–
CCC(C)Oc1ccc(C)cc1N1C(=O)CS/C1=N\C(=O)Nc1ccc(-c2ncn(-c3ccc(OC(F)(F)F)cc3)n2)cc1F (centres unmarked) [Compound J51, (Z)-1-(3-(2-(sec-Butoxy)-5-methylphenyl)-4-oxothiazolidin-2-ylidene)-3-(2-fluoro-4-(1-(4-(trifluoromethoxy)phenyl)-1H-1,2,4-triazol-3-yl)phenyl)urea]	50 to 100%	50 to 100%	–	–	–
CCc1ccc(COCC(F)(F)F)c(N2C(=O)CS/C2=N\C(=O)Nc2ccc(-c3ncn(-c4ccc(OC(F)(F)F)cc4)n3)cc2C)c1 [Compound J641]	–	–	–	–	CL rating [1]: A (50-100); BAW rating [2]: A (50-100)
COc1cc(-c2ncn(-c3ccc(OC(F)(F)F)cc3)n2)ccc1NC(=O)/N=C1\SCC(=O)N1c1cc(N(C)C)ccc1OCCC(F)(F)F [Compound J109, (Z)-1-(3-(5-(Dimethylamino)-2-(3,3,3-trifluoropropoxy)phenyl)-4-oxothiazolidin-2-ylidene)-3-(2-methoxy-4-(1-(4-(trifluoromethoxy)phenyl)-1H-1,2,4-triazol-3-yl)phenyl)urea]	50 to 100%	50 to 100%	–	–	–
O=C(/N=C1\SCC(=O)N1c1cc(F)ccc1COCC(F)(F)F)Nc1ccc(-n2cnc(-c3ccc(C(F)(F)F)cc3)n2)cc1F [Compound J699, (Z)-1-(3-(5-Fluoro-2-((2,2,2-trifluoroethoxy)methyl)phenyl)-4-oxothiazolidin-2-ylidene)-3-(2-fluoro-4-(3-(4-(trifluoromethyl)phenyl)-1H-1,2,4-triazol-1-yl)phenyl)urea]	–	–	50 to 100%	50 to 100%	–
